Test system: Human myeloma SK-Ly-18 cells
Assay: Therapeutic effect on transplanted tumor in nude mice (Test Example 4)
Type: in vivo, BALB/C nu/nu mice
Details: intravenous, amount corresponding to 7.5 mg/kg ADM, on the 7th day after transplantation, compared with control group, FIG. 2
Protocol: Human myeloma SK-Ly-18 cells were suspended in RPMI-1640 medium containing 10% fetal calf serum at a concentration of 2×10^8 cells/ml, and the suspension was mixed with Matrigel (registered trademark; Becton Dickinson Labware, USA) in the ratio of 1:1 (v/v). The mixture (0.1 ml, 1×10^7 cells/mouse) was subcutaneously transplanted into BALB/C nu/nu mice (Clea Japan, Inc.). On the 7th day after the tumor transplantation, a drug-monoclonal antibody conjugate (amount corresponding to 7.5 mg/kg ADM) or ADM (7.5 mg/kg) was intravenously administered to the mice divided in groups each consisting of 5. A control group was given physiological saline in the same manner. The major axis and the minor axis of tumor were measured at intervals, and the tumor volume was calculated as an approximation value of an ellipsoid according to the following equation.
Tumor Volume (mm^3)=(a×b^2)/2
a: major axis (mm) b: minor axis (mm)
The therapeutic effect on the transplanted tumor was evaluated in terms of V/V0, the ratio of the tumor volume on the day of evaluation (V) to that on the day of drug administration (V0).

COc1cccc2c1C(=O)c1c(O)c3c(c(O)c1C2=O)C[C@@](O)(C(=O)CO)C[C@@H]3O[C@H]1C[C@H](N)[C@H](O)[C@H](C)O1 [ADM, Adriamycin, reference compound]
tumor growth inhibiting effect (V/V0): a growth inhibiting effect was not observed

Source: patent US6638509B1, “Toxin conjugates” (Kyowa Hakko Kogyo, Co., Ltd., priority 1995, dated 2003)
